{
  "source": "patent US6338800B1",
  "about": "“Methods and compositions using lanthanum for removing phosphates from water” (Natural Chemistry, Inc., priority 2000, dated 2002)",
  "text": "A test tank with a capacity of approximately 1100 liters was fitted with a HAYWARD® sand filter. The filter was approximately 0.09 square meters and contained approximately 18 kg of coarse sand. An identical tank was fitted with a HAYWARD ® cartridge filter, as is typically used with swimming pools. […] Water is then drawn through the filters using a pump. Each unit was fitted with necessary plumbing to permit test samples of reactant to be added upstream of the filter, to simulate adding the reactant to the skimmer in a full-sized pool. In this way, the reactant could be drawn through the plumbing and into or onto the filter. In this test orthophosphate, in the form of Na2HPO4, was used to simulate the increased phosphate level present in the water.\nThis suspension was added upstream of the filter, thus it was drawn toward and into the filter.",
  "data": [
    {"compound": "O=S(=O)([O-])[O-].O=S(=O)([O-])[O-].O=S(=O)([O-])[O-].[La+3].[La+3]", "note": "[La2(SO4)3, lanthanum sulfate]", "values": [
      {"measurement": "ratio of PO4 recovered to La added", "setting": "commercial grade (approximately 99.5% purity), 0.8 g Na2HPO4 added, otherwise as Example 1", "result": 0.35},
      {"measurement": "PO4 removed", "setting": "reagent grade (99.9% pure), 3.5 g in 50 ml tap water added upstream of filter, 1135 L, approx. 800 ppb phosphate, after 2 hours pumping at approx. 75 L/min", "result": 0.65, "unit": "g"},
      {"measurement": "ratio of PO4 to La observed in the experiment", "setting": "reagent grade (99.9% pure), 3.5 g, after 2 hours", "result": 0.38}
    ]}
  ]
}
